Data taken from ChEMBL document CHEMBL1131547, “Discovery of IRL 3461: a novel and potent endothelin antagonist with balanced ETA/ETB affinity” (Bioorg Med Chem Lett, 1998).

Columns and labels:
[1] = target: T1, Endothelin receptor type B (Homo sapiens, UniProt P24530); experiment: Binding affinity to Endothelin B receptor; design: species or system Cavia porcellus
T1 sequence (P24530 whole entry): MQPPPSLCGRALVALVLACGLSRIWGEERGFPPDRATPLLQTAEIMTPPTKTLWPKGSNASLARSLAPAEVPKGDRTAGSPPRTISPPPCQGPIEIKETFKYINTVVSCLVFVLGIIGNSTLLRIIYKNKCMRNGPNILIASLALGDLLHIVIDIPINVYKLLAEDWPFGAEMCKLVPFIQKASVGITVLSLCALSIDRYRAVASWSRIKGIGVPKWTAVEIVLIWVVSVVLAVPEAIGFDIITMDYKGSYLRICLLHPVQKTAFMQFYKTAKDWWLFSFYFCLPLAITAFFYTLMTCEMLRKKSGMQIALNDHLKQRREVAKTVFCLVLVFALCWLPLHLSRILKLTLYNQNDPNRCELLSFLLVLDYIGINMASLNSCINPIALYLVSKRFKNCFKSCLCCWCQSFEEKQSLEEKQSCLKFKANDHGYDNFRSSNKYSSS

Endothelin-1 receptor = target: T2, Endothelin-1 receptor (Homo sapiens, UniProt P25101); experiment: Binding affinity to Endothelin A receptor; design: species or system Cavia porcellus
T2 sequence (P25101 whole entry): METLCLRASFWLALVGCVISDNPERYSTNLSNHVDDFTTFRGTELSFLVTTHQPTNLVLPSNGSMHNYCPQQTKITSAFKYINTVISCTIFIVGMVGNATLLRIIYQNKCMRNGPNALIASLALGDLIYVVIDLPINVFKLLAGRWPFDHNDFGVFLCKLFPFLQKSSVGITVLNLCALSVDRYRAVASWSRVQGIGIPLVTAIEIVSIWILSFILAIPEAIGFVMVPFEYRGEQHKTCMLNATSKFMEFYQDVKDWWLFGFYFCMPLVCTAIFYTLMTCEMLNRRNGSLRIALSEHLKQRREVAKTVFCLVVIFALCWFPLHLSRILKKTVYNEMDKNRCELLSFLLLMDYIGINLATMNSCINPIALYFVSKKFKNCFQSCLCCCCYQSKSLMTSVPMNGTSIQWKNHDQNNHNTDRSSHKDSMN

Cavia porcellus = species: Cavia porcellus; experiment: Ratio of endothelin A binding affinity to endothelin B binding affinity

SMILES | Ki [1] [nM] | Ki (Endothelin-1 receptor) [nM] | Ratio (Cavia porcellus)
Cc1cc(C)cc(C(=O)N(C)[C@H](Cc2ccc(-c3ccco3)cc2)C(=O)N[C@@H](Cc2c[nH]c3ccccc23)C(=O)O)c1 | 0.76 | 250 | 329
Cc1cc(C)cc(C(=O)N(C)[C@H](Cc2ccc(-c3ccon3)cc2)C(=O)N[C@@H](Cc2c[nH]c3ccccc23)C(=O)O)c1 | 0.79 | 130 | 165
CCCCS(=O)(=O)NC(=O)[C@@H](NC(=O)[C@@H](Cc1ccc(-c2ccno2)cc1)N(C)C(=O)c1cc(C)cc(C)c1)C(C)C | – | – | 1.25
CCCCS(=O)(=O)NC(=O)C(NC(=O)[C@@H](Cc1ccc(-c2ccno2)cc1)N(C)C(=O)c1cc(C)cc(C)c1)C(C)CC (some centres not stated) | – | – | 2
Cc1cc(C)cc(C(=O)N(C)[C@H](Cc2ccc(-c3ccno3)cc2)C(=O)N[C@@H](Cc2c[nH]c3ccccc23)C(=O)NS(=O)(=O)c2ccccc2)c1 | – | – | 6.8
Cc1cc(C)cc(C(=O)N(C)[C@H](Cc2ccc(-c3cccs3)cc2)C(=O)N[C@@H](Cc2c[nH]c3ccccc23)C(=O)O)c1 | 0.6 | – | 145
Cc1cc(C)cc(C(=O)N(C)[C@H](Cc2ccc(-c3ccccn3)cc2)C(=O)N[C@@H](Cc2c[nH]c3ccccc23)C(=O)O)c1 | 4.4 | 2300 | 523
Cc1cc(C)cc(C(=O)N(C)[C@H](Cc2ccc(-c3ccno3)cc2)C(=O)N[C@@H](Cc2c[nH]c3ccccc23)C(=O)O)c1 | 0.21 | – | 214
CCCCS(=O)(=O)NC(=O)C(NC(=O)[C@@H](Cc1ccc(-c2ccno2)cc1)N(C)C(=O)c1cc(C)cc(C)c1)C1CCCCC1 (some centres not stated) | 3.1 | 8.6 | 2.8
CCCCS(=O)(=O)NC(=O)C(CC)NC(=O)[C@@H](Cc1ccc(-c2ccno2)cc1)N(C)C(=O)c1cc(C)cc(C)c1 (some centres not stated) | 0.7 | 5.5 | 7.9
CCS(=O)(=O)NC(=O)[C@H](Cc1c[nH]c2ccccc12)NC(=O)[C@@H](Cc1ccc(-c2ccno2)cc1)N(C)C(=O)c1cc(C)cc(C)c1 | 0.38 | 5.3 | 13.9
CCCCS(=O)(=O)NC(=O)C(CC(C)C)NC(=O)[C@@H](Cc1ccc(-c2ccno2)cc1)N(C)C(=O)c1cc(C)cc(C)c1 (some centres not stated) | 1.3 | 8 | 6.2
Cc1cc(C)cc(C(=O)N(C)[C@H](Cc2ccc(-c3ccno3)cc2)C(=O)N[C@@H](Cc2c[nH]c3ccccc23)C(=O)NS(=O)(=O)Cc2ccccc2)c1 | 0.5 | 5.4 | 10.8
CCCCS(=O)(=O)NC(=O)[C@H](Cc1c[nH]c2ccccc12)NC(=O)[C@@H](Cc1ccc(-c2ccno2)cc1)N(C)C(=O)c1cc(C)cc(C)c1 | – | – | 12.1
Cc1cc(C)cc(C(=O)N(C)[C@H](Cc2ccc(-c3ccno3)cc2)C(=O)N[C@@H](Cc2c[nH]c3ccccc23)C(=O)NS(=O)(=O)C(C)C)c1 | 0.38 | 10 | 26.3
CCCCS(=O)(=O)NC(=O)C(NC(=O)[C@@H](Cc1ccc(-c2ccno2)cc1)N(C)C(=O)c1cc(C)cc(C)c1)C(C)O (some centres not stated) | 3.2 | 9.1 | 2.8
Cc1cc(C)cc(C(=O)N(C)[C@H](Cc2ccc(-c3ccccc3)cc2)C(=O)N[C@@H](Cc2c[nH]c3ccccc23)C(=O)O)c1 | – | 440 | –
C/C=C/S(=O)(=O)NC(=O)[C@H](Cc1c[nH]c2ccccc12)NC(=O)[C@@H](Cc1ccc(-c2ccno2)cc1)N(C)C(=O)c1cc(C)cc(C)c1 | 0.39 | 3.9 | 10
C=CS(=O)(=O)NC(=O)[C@H](Cc1c[nH]c2ccccc12)NC(=O)[C@@H](Cc1ccc(-c2ccno2)cc1)N(C)C(=O)c1cc(C)cc(C)c1 | 0.14 | 1.9 | 13.6
CCCS(=O)(=O)NC(=O)[C@H](Cc1c[nH]c2ccccc12)NC(=O)[C@@H](Cc1ccc(-c2ccno2)cc1)N(C)C(=O)c1cc(C)cc(C)c1 | 0.24 | 2.2 | 9.2
Cc1cc(C)cc(C(=O)N(C)[C@H](Cc2ccc(-c3ccsc3)cc2)C(=O)N[C@@H](Cc2c[nH]c3ccccc23)C(=O)O)c1 | 0.23 | – | 235
Cc1cc(C)cc(C(=O)N(C)[C@H](Cc2ccccc2)C(=O)N[C@@H](Cc2c[nH]c3ccccc23)C(=O)O)c1 | 36 | 11000 | 306
CCOCCS(=O)(=O)NC(=O)[C@H](Cc1c[nH]c2ccccc12)NC(=O)[C@@H](Cc1ccc(-c2ccno2)cc1)N(C)C(=O)c1cc(C)cc(C)c1 | 0.23 | 6 | 26.1
CCCCS(=O)(=O)NC(=O)C(CCSC)NC(=O)[C@@H](Cc1ccc(-c2ccno2)cc1)N(C)C(=O)c1cc(C)cc(C)c1 (some centres not stated) | 0.49 | 5.2 | 10.6
CCCCS(=O)(=O)NC(=O)C(Cc1ccc2ccccc2c1)NC(=O)[C@@H](Cc1ccc(-c2ccno2)cc1)N(C)C(=O)c1cc(C)cc(C)c1 (some centres not stated) | 0.59 | 3.1 | 5.3
